SMILES | melting point [°C]
Nc1nc(C(F)(F)F)c[nH]1 | 121 to 123
Cc1nn(Cc2ccc(Cl)cc2)c(C)c1C=O | 71 to 73
Sc1nc2ncccn2n1 | 234 to 236
Cc1nc(Cl)c(C)c(NN)n1 | 141 to 143
O=C(O)C1CCc2nnc(C(F)F)n2C1 (stereo not drawn) | 215 to 217
O=C(CCl)Nc1ccc(S(=O)(=O)N2CCOCC2)cc1 | 145 to 147
O=C(NC1CC1)OCC(F)(F)F | 53 to 55
COc1cc(C(=O)O)cc(NS(C)(=O)=O)c1OC | 214 to 216
N#Cc1ccc(CBr)c(OC(F)F)c1 | 80 to 82
O=c1cc(-c2cccc(Cl)c2)[nH]c(=O)[nH]1 | 248 to 250
COC(=O)c1ccc(Br)cc1F | 59 to 61
CCOC(=O)c1sc(N)c(C#N)c1C | 212 to 214
COc1cc(NC(=O)C2CCCC2)c(C(=O)O)cc1OC | 193 to 195
Cc1c(C(=O)O)sc2nc[nH]c(=O)c12 | 248 to 252
NC(=O)NC1(C(=O)O)CCCCC1 | 179 to 181
CC(=O)NS(=O)(=O)Cl | 92 to 94
Cn1c(=O)c2nc(SCC(=O)O)[nH]c2n(C)c1=O | 259 to 261
Cc1ccc(CNCCO)cc1 | 62 to 64
CC(C)(C)OC(=O)NCC1CCCCS1 (stereo not drawn) | 70 to 72
NS(=O)(=O)Cc1ccc([N+](=O)[O-])cc1Br | 200 to 202
ClCc1nc2cc(Cl)ccc2s1 | 99 to 101

SMILES | melting point [°C]
CC(C)(C)CCS(=O)(=O)Cl | 33 to 35
CCN(CC)S(=O)(=O)c1ccc(N2CCCCC2)c(C(=O)O)c1 | 157 to 159
CC(C)NC(=O)Nc1ccc(C#N)cc1 | 193 to 195
CC1C(=O)NCCN1C(=O)c1cccs1 (stereo not drawn) | 129 to 131
O=C(O)CCNS(=O)(=O)c1ccc2c(c1)OCCCO2 | 200 to 205
O=C(c1ccc(F)cc1F)N1CCCNCC1 | 93 to 95
Cc1cc(F)c(N)c(I)c1 | 32 to 34
COc1ccccc1NC1=NCCCS1 | 83 to 85
NCc1cc(Br)c[nH]1 | 105 to 107
O=C(O)CCc1nc(-c2cc(Br)cs2)no1 | 129 to 131
Cc1ccc2c(c1)C(=NO)C(=O)N2 | 239 to 241
CCOC(=O)c1ccc(OCC#N)cc1 | 73 to 75
CSc1nn(C)c2nc[nH]c(=O)c12 | 251 to 253
COC(=O)c1cc(F)c(Br)c([N+](=O)[O-])c1 | 66 to 68
O/N=C1\CCN2CCCCC12 (stereo not drawn) | 96 to 98
Clc1ccc2c(c1)CCCN2 | 37 to 39
O=S(=O)(CCCl)c1cc(Cl)ccc1Cl | 80 to 82
C/C(=N\O)c1sc(C(C)(C)C)nc1C | 117 to 119
Cc1cc(NC(=O)CCl)n(-c2ccc(F)cc2)n1 | 128 to 130
Cc1ccc(S(=O)(=O)N2CCCCC2)cc1N | 106 to 110
Nc1ccc(Oc2cccc(F)c2)cc1 | 72 to 74

SMILES | melting point [°C]
Cc1ccc(Oc2ccc(N)cc2)cc1 | 118 to 122
O=C(CCl)Nc1nncs1 | 233 to 235
COCCn1ncc2ccc(N)cc21 | 86 to 88
Cc1cc(C(=O)O)c(Br)s1 | 181 to 183
Cc1ccc(C2(C)NC(=O)NC2=O)cc1 (stereo not drawn) | 207 to 209
N[C@H]1CC[C@@H](CO)CC1 | 144 to 146
Nc1ccc(S(=O)(=O)NCC2CC2)cc1 | 109 to 111
Cn1cc(N2CCNCC2)cn1 | 68 to 70
O=[N+]([O-])c1cccnc1N1CCC(CO)CC1 | 71 to 73
Cc1ccc2[nH]c3c(c2c1)CC(C)(C)CC3 | 114 to 116
Cc1cc(NC(=O)OC(C)(C)C)sc1C | 102 to 104
CC(C)n1ncc2cc(S(N)(=O)=O)ccc21 | 168 to 170
CCOC(=O)/C(C#N)=C\Nc1ccc(OC(F)F)cc1 | 101 to 103
COc1ccccc1NC1=NCC(C)S1 (stereo not drawn) | 92 to 97
CCC(CC)NC(=O)C(=O)NN | 177 to 179
Cc1ccccc1C(O)CN (stereo not drawn) | 88 to 90
CC(Cl)c1nnc(-c2cccs2)o1 (stereo not drawn) | 211 to 213
C=CC(=O)Nc1ccc(OCC)c(OC)c1 | 117 to 119
COC(=O)c1cncnc1O | 201 to 203
CNS(=O)(=O)c1cccc(C(C)=O)c1 | 96 to 98
CCNS(=O)(=O)c1c[nH]c(C(=O)O)c1 | 183 to 185

SMILES | melting point [°C]
NS(=O)(=O)c1ccc(S(=O)(=O)Cl)cc1 | 144 to 146
NC(=O)C1CCCn2ccnc21 (stereo not drawn) | 177 to 179
COc1cc(C=O)ccc1OCc1csc(C)n1 | 86 to 88
COc1cc(C=O)cc(OC)c1OC(C)=O | 115 to 117
COc1ccc(OC)c(C(C)NC(=O)C(C)Cl)c1 (stereo not drawn) | 96 to 98
Cc1ccc(N(CCC#N)C(=O)CCl)cc1 | 56 to 58
Cc1c[nH]c(=O)n1-c1ccc(F)c(F)c1 | 250 to 252
O=C(O)C(=O)Nc1ccc(Br)cc1C(F)(F)F | 116 to 118
Cc1ncc(C=O)n1-c1ccc(Br)cc1 | 110 to 112
O=S(=O)(c1ccc(Cl)nc1)N1CCCCC1 | 130 to 132
COc1cc(OC)cc(N2CCC(Br)C2=O)c1 (stereo not drawn) | 78 to 80
CC1CCc2c(sc3nc(CN4CCOCC4)nc(Cl)c23)C1 (stereo not drawn) | 55 to 57
Cc1nc2c(cnn2C(C)C)c(=O)[nH]1 | 174 to 176
O=C(O)CCNC(=O)c1ccsc1 | 235 to 237
O=C1CCCc2c(Br)cccc21 | 50 to 52
CC1Nc2cc(=O)[nH]n2C(C)C1CC(=O)O (stereo not drawn) | 235 to 237
O=C(CCC1CCCO1)NC1CCC(C(=O)O)CC1 (stereo not drawn) | 199 to 201
CCOC(=O)C(=O)c1nccn1C | 52 to 54
N#Cc1cc(N)ccc1Oc1ccc(C(F)(F)F)cc1 | 75 to 77
COc1ccc(Cn2cc(C(=O)O)cn2)cc1 | 132 to 134

Further lines, results first:

melting point [°C] | SMILES
103 to 105 | COc1cccc(-c2noc(SCC(=O)O)n2)c1
95 to 97 | COC(=O)NCc1ccc(N)cc1
66 to 68 | NC(=S)c1cccc(C(F)(F)F)c1
96 to 98 | CNc1ccccc1C(=O)NCCc1ccc(OC)cc1
71 to 73 | Cc1ccc(SCCC(=O)O)cc1
112 to 114 | N#Cc1ccc(Oc2cccc(N)c2)nc1
34 to 36 | CCOC(=O)Cn1ncc2ccccc21
89 to 91 | Nc1ccc(-c2ccccn2)cn1
190 to 195 | CC(=O)Nc1ccc2c(CCl)cc(=O)oc2c1
158 to 160 | Nc1ccccc1C(=O)Nc1ccc(Cl)cn1
200 to 202 | O=C(O)c1csc(-c2cccc(C(F)(F)F)c2)n1
166 to 168 | O=C(O)Cc1cc2c(ccc3ccccc32)o1
194 to 196 | Cc1ccc(-n2cc(C(=O)O)c(-c3ccccc3)n2)cc1
56 to 58 | CC(C)(C)OC(=O)C1CCN(C(=O)OCc2ccccc2)CC1
151 to 153 | CC(=O)Cn1c(=O)oc(=O)c2ccccc21
165 to 167 | CC(C)(NC(=O)c1ccccc1)C(N)=S
115 to 117 | c1ccc(CCNc2nc(-c3ccccc3)cs2)cc1
89 to 91 | CCOC(=O)c1cc2cc(N)ccc2s1
161 to 163 | O=C(O)c1ccccc1Oc1ccc(Cl)cc1Cl
142 to 144 | CC(C)(C)OC(=O)N1CCc2ccccc2C1C(=O)O (stereo not drawn)

melting point [°C] | SMILES
133 to 135 | Clc1ccc2nc(-c3ccccn3)[nH]c2c1
68 to 70 | CCCNC(=O)c1cccc(O)c1
169 to 171 | CCOc1ccc(Nc2nc3ccccc3s2)cc1
149 to 151 | NC(=O)NCc1ccccc1Cl
177 to 179 | CCn1c(C(=O)O)cc2ccccc21
246 to 248 | O=C(O)C1CCN(C(=O)c2ccc3[nH]ncc3c2)CC1
182 to 184 | O=C(O)CSc1nnc(-c2ccc3ccccc3c2)o1
119 to 120 | O=c1cc(CCl)c2c(ccc3ccccc32)o1
92 to 96 | COC(=O)c1c(-c2ccccc2Cl)csc1N
205 to 207 | Cc1cc(O)cc(C(=O)O)c1
188 to 190 | Cc1cccc2[nH]cc(C=O)c12
90 to 92 | CNC(=O)c1ccc(CN)cc1
84 to 86 | CC(C)(C)OC(=O)N(CC(=O)O)c1ccccc1
233 to 235 | Cn1c(C(=O)O)c(Cl)c2ccccc21
257 to 259 | Nc1c(C(=O)O)nnc2ccccc12
121 to 123 | Nc1nc2ccccc2n1-c1ccccc1F
184 to 186 | O=C(NNC(=O)C(Cl)Cl)c1ccccc1
264 to 266 | N#CC(C#N)=C1Nc2ccccc2N=C1Cl
108 to 110 | O=C(NCc1ccc2c(c1)OCO2)n1ccnc1
146 to 148 | Cc1ccc(-c2ccccc2C(=O)O)cc1

melting point [°C] | SMILES
169 to 171 | O=C(O)c1cc(-c2ccc(Cl)s2)on1
255 to 257 | Nc1noc(-c2ccc(Cl)cc2)n1
183 to 185 | COc1ccc(C2C(C(=O)O)CC(=O)N2C)cc1 (stereo not drawn)
138 to 140 | Fc1ccc(-c2nnc(CCl)o2)cc1
76 to 78 | NC(Cc1ccccc1)C(=O)Nc1ccccc1 (stereo not drawn)
177 to 179 | c1cncc(CNc2nc3ccccc3[nH]2)c1
181 to 183 | N#CCC(=O)Nc1ccncc1
79 to 81 | COc1ccccc1C(C#N)NC(=O)OC(C)(C)C (stereo not drawn)
163 to 165 | O=C(O)c1oc2ccccc2c1COc1ccccc1
201 to 203 | COc1ccc(OC)c2[nH]c(C(=O)O)cc12
202 to 204 | Cc1nn(-c2cccc(Cl)c2)nc1C(=O)O
226 to 228 | O=C(O)c1cnc(-c2ccoc2)s1
124 to 126 | O=C(CO)c1ccc(Cl)cc1
236 to 238 | COC(=O)c1ccc(C=CC(=O)O)cc1
130 to 132 | c1ccc2sc(NCC3CCCO3)nc2c1 (stereo not drawn)
243 to 246 | O=c1[nH]cnc2c1cnn2-c1ccc(F)cc1
53 to 55 | CCOC(=O)c1nnc2ccccc2c1Cl
105 to 107 | CCOC(=O)c1c(N)sc2ccccc12
60 to 62 | COC(=O)c1cc(-c2ccccc2)nc2ccccc12
144 to 146 | CC(C)n1ncc2c(C(=O)O)cc(C3CC3)nc21

Reference: a melting point compilation (Tetko et al.)
